Experiments:
[1] = biological target: RSK1 (Homo sapiens, UniProt Q15418); test: Kinase selectivity profiling
[2] = biological target: FGFR3 (Homo sapiens, UniProt P22607); test: Kinase selectivity profiling
[3] = biological target: TTK (Homo sapiens, UniProt P33981); test: Kinase selectivity profiling
[4] = biological target: EPHA3 (Homo sapiens, UniProt P29320); test: Kinase selectivity profiling
[5] = biological target: ABL1 (Homo sapiens, UniProt P00519); test: Kinase selectivity profiling
[6] = biological target: EPHA5 (Homo sapiens, UniProt P54756); test: Kinase selectivity profiling
[7] = biological target: SRM (Homo sapiens, UniProt Q9H3Y6); test: Kinase selectivity profiling
[8] = biological target: BTK (Homo sapiens, UniProt Q06187); test: Kinase selectivity profiling
[9] = biological target: AKT2 (Homo sapiens, UniProt P31751); test: Kinase selectivity profiling
[10] = biological target: CK2α1/β (Homo sapiens, UniProt P68400); test: Kinase selectivity profiling
[11] = biological target: DCAMKL2 (Homo sapiens, UniProt Q8N568); test: Kinase selectivity profiling
[12] = biological target: p70S6K (Homo sapiens, UniProt P23443); test: Kinase selectivity profiling
[13] = biological target: DYRK1B (Homo sapiens, UniProt Q9Y463); test: Kinase selectivity profiling
[14] = biological target: PDGFRa (Homo sapiens, UniProt P16234); test: Kinase selectivity profiling
[15] = biological target: EPHB2 (Homo sapiens, UniProt P29323); test: Kinase selectivity profiling
[16] = biological target: SYK (Homo sapiens, UniProt P43405); test: Kinase selectivity profiling
[17] = biological target: MAP2K1 (Homo sapiens, UniProt Q02750); test: Kinase selectivity profiling
[18] = biological target: AMPKα1/β1/γ1 (Homo sapiens, UniProt Q13131); test: Kinase selectivity profiling
[19] = biological target: CK2α2/β (Homo sapiens, UniProt P19784); test: Kinase selectivity profiling
[20] = biological target: PAK2 (Homo sapiens, UniProt Q13177); test: Kinase selectivity profiling
[21] = biological target: DCAMKL1 (Homo sapiens, UniProt O15075); test: Kinase selectivity profiling
[22] = biological target: JAK2 (Homo sapiens, UniProt O60674); test: Kinase selectivity profiling
[23] = biological target: AXL (Homo sapiens, UniProt P30530); test: Kinase selectivity profiling
[24] = biological target: CDK1/CycA2 (Homo sapiens, UniProt P06493); test: Kinase selectivity profiling
[25] = biological target: ROCK1 (Homo sapiens, UniProt Q13464); test: Kinase selectivity profiling
[26] = biological target: JNK3 (Homo sapiens, UniProt P53779); test: Kinase selectivity profiling
[27] = biological target: BRK (Homo sapiens, UniProt Q13882); test: Kinase selectivity profiling
[28] = biological target: JNK1 (Homo sapiens, UniProt P45983); test: Kinase selectivity profiling
[29] = biological target: TRKB (Homo sapiens, UniProt Q16620); test: Kinase selectivity profiling
[30] = system: Huh7; test: Huh7 viability assay; assay type: cell-based; conditions: Homo sapiens, Huh-7; Huh7, FGF19-overexpressing HCC cell line, 72 h, CCK-8
Procedure: Hep3B (ThermoFisher Scientific, 11965, America) and Huh7 (ThermoFisher Scientific, 11095, America) cells were seeded into 96-well plates at 4000 cells/well and 2000 cells/well, respectively. […] Cell viabilities were measured by a CCK-8 kit (Vazyme, China). The IC50 values were calculated using GraphPad Prism software.

[31] = biological target: DDR2 (Homo sapiens, UniProt Q16832); test: Kinase selectivity profiling
[32] = biological target: TIE2 (Homo sapiens, UniProt Q02763); test: Kinase selectivity profiling
[33] = biological target: PIK3CB/PIK3R1 (Homo sapiens, UniProt P42338); test: Kinase selectivity profiling
[34] = biological target: FYNa (Homo sapiens, UniProt P06241); test: Kinase selectivity profiling
[35] = biological target: LYNa (Homo sapiens, UniProt P07948); test: Kinase selectivity profiling
[36] = biological target: ALK (Homo sapiens, UniProt Q9UM73); test: Kinase selectivity profiling
[37] = biological target: HIPK1 (Homo sapiens, UniProt Q86Z02); test: Kinase selectivity profiling
[38] = biological target: INSR (Homo sapiens, UniProt P06213); test: Kinase selectivity profiling
[39] = biological target: PLK3 (Homo sapiens, UniProt Q9H4B4); test: Kinase selectivity profiling

Chain of TIE2 (Q02763 23-1124): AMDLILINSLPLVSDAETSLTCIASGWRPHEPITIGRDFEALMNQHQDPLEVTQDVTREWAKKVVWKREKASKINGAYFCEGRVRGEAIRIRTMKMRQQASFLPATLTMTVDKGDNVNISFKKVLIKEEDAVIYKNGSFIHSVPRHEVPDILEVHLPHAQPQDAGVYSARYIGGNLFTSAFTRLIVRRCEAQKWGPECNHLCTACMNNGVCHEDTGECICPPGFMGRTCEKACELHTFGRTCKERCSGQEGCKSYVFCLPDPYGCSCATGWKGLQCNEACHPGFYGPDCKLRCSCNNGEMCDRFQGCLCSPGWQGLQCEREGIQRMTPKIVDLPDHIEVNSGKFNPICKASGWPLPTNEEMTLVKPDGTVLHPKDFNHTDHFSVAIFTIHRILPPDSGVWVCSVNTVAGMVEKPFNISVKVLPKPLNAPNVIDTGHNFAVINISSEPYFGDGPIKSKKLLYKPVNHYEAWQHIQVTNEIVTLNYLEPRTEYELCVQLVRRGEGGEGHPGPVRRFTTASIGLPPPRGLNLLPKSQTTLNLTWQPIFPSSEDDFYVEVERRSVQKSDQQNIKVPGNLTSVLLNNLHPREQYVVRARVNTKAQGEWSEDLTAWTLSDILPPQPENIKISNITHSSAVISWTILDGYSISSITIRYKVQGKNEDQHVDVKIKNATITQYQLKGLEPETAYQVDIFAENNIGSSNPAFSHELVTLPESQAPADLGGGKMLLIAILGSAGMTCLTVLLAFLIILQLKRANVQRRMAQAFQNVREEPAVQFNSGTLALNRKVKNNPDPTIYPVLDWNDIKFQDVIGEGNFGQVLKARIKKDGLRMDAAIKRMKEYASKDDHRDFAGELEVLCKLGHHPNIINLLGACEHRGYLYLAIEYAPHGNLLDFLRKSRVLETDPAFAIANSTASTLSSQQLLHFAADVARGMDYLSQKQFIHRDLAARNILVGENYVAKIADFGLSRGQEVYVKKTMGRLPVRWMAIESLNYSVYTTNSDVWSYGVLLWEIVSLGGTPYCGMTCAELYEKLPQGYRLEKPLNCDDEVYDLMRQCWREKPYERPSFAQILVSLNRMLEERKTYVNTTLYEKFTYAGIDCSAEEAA
Chain of FGFR3 (P22607 23-806): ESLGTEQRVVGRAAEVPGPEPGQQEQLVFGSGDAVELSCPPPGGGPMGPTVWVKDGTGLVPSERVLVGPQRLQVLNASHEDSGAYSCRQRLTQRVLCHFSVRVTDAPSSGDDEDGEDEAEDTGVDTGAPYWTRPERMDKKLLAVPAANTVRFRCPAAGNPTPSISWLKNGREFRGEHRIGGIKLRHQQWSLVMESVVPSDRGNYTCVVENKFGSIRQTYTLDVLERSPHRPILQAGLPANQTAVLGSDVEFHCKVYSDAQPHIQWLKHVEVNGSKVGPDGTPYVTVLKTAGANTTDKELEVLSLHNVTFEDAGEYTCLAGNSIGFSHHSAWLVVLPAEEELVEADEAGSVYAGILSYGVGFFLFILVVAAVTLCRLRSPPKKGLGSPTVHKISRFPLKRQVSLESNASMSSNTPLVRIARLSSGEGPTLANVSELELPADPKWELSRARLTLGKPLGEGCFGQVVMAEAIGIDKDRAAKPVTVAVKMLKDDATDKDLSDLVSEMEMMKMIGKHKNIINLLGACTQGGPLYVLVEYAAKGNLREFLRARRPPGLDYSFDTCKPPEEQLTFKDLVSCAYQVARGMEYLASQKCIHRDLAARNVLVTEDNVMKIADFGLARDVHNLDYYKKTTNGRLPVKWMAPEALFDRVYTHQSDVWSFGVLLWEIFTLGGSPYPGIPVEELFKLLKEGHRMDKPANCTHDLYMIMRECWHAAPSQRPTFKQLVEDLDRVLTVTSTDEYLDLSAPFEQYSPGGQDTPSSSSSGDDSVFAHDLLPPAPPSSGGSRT
Chain of MAP2K1 (Q02750 whole entry): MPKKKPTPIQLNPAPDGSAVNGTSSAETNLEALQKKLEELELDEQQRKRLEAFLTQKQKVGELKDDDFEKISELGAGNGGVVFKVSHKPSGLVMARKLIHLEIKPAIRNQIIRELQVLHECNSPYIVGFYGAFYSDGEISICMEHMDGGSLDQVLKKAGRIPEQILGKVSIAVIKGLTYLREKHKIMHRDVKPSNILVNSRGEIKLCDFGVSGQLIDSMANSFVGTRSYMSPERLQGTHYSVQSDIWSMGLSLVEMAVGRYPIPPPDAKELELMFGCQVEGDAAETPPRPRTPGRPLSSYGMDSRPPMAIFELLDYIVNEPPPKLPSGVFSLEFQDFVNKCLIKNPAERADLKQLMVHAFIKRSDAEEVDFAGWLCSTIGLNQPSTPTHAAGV
Chain of CDK1/CycA2 (P06493 whole entry): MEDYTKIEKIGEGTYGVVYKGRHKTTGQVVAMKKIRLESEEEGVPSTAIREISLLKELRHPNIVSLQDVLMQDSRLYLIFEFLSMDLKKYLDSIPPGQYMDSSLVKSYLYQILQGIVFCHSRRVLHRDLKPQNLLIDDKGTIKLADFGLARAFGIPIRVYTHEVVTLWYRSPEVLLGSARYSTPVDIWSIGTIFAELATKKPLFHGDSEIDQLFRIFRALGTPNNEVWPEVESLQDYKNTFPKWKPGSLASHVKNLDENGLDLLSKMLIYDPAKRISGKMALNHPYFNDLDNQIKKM
Chain of CDK1/CycA2 (P20248 whole entry partner): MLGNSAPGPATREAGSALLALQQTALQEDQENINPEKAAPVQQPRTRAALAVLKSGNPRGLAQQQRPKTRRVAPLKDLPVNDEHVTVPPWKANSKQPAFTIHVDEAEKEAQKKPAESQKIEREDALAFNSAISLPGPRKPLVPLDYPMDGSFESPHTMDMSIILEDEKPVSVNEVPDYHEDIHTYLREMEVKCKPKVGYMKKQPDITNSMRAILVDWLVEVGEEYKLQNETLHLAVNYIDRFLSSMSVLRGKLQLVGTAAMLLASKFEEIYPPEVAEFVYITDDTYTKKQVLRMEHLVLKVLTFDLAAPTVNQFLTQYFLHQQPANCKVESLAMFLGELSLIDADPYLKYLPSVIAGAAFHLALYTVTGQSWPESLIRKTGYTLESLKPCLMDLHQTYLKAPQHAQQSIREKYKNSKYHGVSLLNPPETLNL
Chain of JNK3 (P53779 whole entry): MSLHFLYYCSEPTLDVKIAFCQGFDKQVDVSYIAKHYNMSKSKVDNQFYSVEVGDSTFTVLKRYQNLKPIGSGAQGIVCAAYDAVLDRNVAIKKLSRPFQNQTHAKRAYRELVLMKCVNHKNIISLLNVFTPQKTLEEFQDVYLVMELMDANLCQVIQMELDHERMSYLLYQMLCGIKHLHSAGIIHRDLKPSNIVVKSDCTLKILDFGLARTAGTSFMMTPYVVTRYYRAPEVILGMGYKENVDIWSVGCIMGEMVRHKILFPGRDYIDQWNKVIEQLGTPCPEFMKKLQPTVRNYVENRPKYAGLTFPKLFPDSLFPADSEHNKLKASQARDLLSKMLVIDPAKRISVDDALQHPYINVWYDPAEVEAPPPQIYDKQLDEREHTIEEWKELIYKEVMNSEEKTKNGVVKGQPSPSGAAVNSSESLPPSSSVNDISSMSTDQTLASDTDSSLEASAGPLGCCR
Chain of ALK (Q9UM73 19-1620): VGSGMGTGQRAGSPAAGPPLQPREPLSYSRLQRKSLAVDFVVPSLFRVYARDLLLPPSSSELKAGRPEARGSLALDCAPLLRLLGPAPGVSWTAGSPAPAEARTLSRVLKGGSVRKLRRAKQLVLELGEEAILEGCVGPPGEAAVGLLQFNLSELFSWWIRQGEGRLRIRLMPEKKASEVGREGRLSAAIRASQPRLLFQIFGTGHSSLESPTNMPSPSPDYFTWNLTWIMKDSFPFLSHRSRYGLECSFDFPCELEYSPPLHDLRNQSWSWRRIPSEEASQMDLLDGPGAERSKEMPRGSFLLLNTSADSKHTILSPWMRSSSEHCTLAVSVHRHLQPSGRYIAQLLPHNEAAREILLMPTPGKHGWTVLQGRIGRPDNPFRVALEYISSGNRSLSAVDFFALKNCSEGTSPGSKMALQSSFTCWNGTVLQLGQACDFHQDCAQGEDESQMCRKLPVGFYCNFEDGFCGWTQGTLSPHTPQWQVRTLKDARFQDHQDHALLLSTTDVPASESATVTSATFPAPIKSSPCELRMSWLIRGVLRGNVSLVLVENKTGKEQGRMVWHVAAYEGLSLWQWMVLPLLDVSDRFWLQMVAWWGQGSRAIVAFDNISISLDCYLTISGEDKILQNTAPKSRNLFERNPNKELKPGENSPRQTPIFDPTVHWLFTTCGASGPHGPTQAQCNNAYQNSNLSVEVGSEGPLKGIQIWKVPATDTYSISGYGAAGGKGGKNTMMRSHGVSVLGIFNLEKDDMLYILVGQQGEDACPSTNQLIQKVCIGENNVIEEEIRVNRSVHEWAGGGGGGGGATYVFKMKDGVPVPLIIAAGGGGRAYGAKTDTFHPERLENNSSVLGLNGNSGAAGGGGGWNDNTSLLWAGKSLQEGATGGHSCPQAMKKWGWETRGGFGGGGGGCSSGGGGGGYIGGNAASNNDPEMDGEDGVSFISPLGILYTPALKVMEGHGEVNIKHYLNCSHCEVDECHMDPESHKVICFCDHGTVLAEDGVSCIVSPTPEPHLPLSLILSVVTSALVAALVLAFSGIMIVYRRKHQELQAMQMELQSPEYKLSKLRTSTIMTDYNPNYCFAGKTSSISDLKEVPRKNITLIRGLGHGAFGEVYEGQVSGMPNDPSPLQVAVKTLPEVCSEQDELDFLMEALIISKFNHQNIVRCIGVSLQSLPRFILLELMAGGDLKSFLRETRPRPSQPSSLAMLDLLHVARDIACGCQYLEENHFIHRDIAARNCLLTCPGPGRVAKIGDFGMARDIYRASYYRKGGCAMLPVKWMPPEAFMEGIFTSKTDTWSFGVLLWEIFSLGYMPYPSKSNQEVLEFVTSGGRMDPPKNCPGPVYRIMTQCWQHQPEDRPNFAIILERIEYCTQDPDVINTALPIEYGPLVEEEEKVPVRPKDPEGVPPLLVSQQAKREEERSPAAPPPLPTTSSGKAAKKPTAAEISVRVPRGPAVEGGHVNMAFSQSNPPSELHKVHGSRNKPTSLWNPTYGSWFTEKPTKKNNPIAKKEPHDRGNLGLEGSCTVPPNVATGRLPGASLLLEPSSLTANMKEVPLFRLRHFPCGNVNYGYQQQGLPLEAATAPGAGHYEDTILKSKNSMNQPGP

Work on `C=CC(=O)Nc1ccccc1Nc1ncc2c(n1)N(CCCN1CCN(C(=O)C=C)CC1)C(=O)N(c1cc(OC)cc(OC)c1)C2` [CXF-009] yielded an inhibition at 1 µM [1] of -2.52%, an inhibition at 1 µM [2] of 11.1% and an inhibition at 1 µM [3] of 6.62%. The inhibition at 1 µM [4] was -1.81%, the inhibition at 1 µM [5] was -1.44% and the inhibition at 1 µM [6] was 8.67%. For the same molecule, the inhibition at 1 µM [7] was 5.29%, the inhibition at 1 µM [8] was -5.76% and the inhibition at 1 µM [9] was 3.35%. It also gave an inhibition at 1 µM [10] of -3.22%, an inhibition at 1 µM [11] of 18.9% and an inhibition at 1 µM [12] of 1.69%. For the same molecule, the inhibition at 1 µM [13] was 0.62%, the inhibition at 1 µM [14] was -0.91% and the inhibition at 1 µM [15] was -3.12%. For the same molecule, the inhibition at 1 µM [16] was 13.6%, the inhibition at 1 µM [17] was 0.59% and the inhibition at 1 µM [18] was 2.23%. The inhibition at 1 µM [19] was -7.98%, the inhibition at 1 µM [20] was 3.22% and the inhibition at 1 µM [21] was 13.4%. It also gave an inhibition at 1 µM [22] of 0.56%, an inhibition at 1 µM [23] of -7.53% and an inhibition at 1 µM [24] of -1.02%. It also gave an inhibition at 1 µM [25] of 5.09%, an inhibition at 1 µM [26] of -3.67% and an inhibition at 1 µM [27] of 1.91%. The inhibition at 1 µM [28] was -4.4%, the inhibition at 1 µM [29] was 42.1% and the IC50 [30] was 727 nM. For the same molecule, the inhibition at 1 µM [31] was 2.15%, the inhibition at 1 µM [32] was -12.8% and the inhibition at 1 µM [33] was 0.17%. The inhibition at 1 µM [34] was -9.44%, the inhibition at 1 µM [35] was -2.53% and the inhibition at 1 µM [36] was 7.28%. The inhibition at 1 µM [37] was -5.67%, the inhibition at 1 µM [38] was 0.8% and the inhibition at 1 µM [39] was -1.12%.
